Reference: US20250003900A1, “Micro Magnetic Resonance Relaxometry (MMRR) for Rapid and Non-Invasive Detection of Senescence in Mesenchymal Stem Cells” (Massachusetts Institute of Technology, priority 2021, published 2025)

Columns and labels:
[1] = tested on: MSCs; test: Immunofluorescence of proliferation marker EdU and senescence marker γ-H2AX foci in MSCs; format: cell-based; details: passage 3 MSCs, 1 μM doxorubicin for 24 hours
Description: Proliferation and senescence were measured simultaneously in order to correlate cell state directly with the MRR T2 values. MSCs from the same donor were serially passaged to passage 3, passage 5, and passage 6. As a positive control for senescence cells, cells from passage 3 were also treated with doxorubicin (DOX), a chemotherapy agent that produces DNA damage and reactive oxygen species to induce senescence in tumor cells. To measure DNA synthesis, EdU (5-ethynyl-2′-deoxyuridine) was used as an indicator of active cell proliferation (shown in green). In contrast, senescent cells are known to accumulate γ-H2AX foci (indicated in red). The proliferation (Pf) index and senescence (Sn) index were calculated from these images and plotted respectively (FIG. 6C and FIG. 6D). […]
(§1) Bone marrow-derived mesenchymal stem cells (MSC) were purchased from Lonza Pte. […] The cell number was calculated using a disposable hemocytometer (INCYTO, Korea) with the trypan blue exclusion method. […]
For detection of SA-βgal together with another senescence marker (γ-H2AX foci) (Ref. 66) and the proliferation marker, 5-ethynyl-2′-deoxyuridine (Edu) in the cells, the protocol was performed as previously mentioned (Ref. 67). […] Subsequently, Edu labeling was detected following the manufacturer's protocol (Invitrogen). […]

[2] = tested on: MSCs; test: μMRR T2 measurement of MSCs with induced senescence; format: cell-based
Text: Cytokines such as Transforming Growth Factor-β1 (TGFβ1) and interleukin-1 (IL-1) induce senescence in MSCs. TGFβ1 is a TGF family member that controls numerous cellular functions, including proliferation and cell death. (Refs. 51 and 52) IL-1 is a proinflammatory cytokine whose expression is associated with SASP. […] The senescent cells are more in TGF-β1 treated cells than IL-1 treated cells (FIG. 8), which is also confirmed here by its decreased T2 values than IL-1 treated cells.
Since MSCs donors show differences in proliferative ability, it is important to find the limit of detection (LOD) of MRR assay in terms of the cell number. […] Here, the LOD was analyzed by decreasing the concentration of cells even lower to 4 ×10^4, 2×10^4, and 1×10^4 cells for uMRR detection as shown in the FIG. 6H and FIG. 8. […] The batches of 1, 2, and 4 (×10^4 cells) in 4 μl detection volume of TGF-β1 treated and untreated MSCs were analyzed by MRR. […]
as §1
For all MRR experiments, the normalized concentration (3×10^5 cells) of MSCs have used unless otherwise stated. […] Proton transverse relaxation rates T2 were measured by standard Carr-Purcell-Meiboom-Gill (CPMG) pulse programme (Refs. 64 and 65) (FIG. 3B). […]

| Molecule | senescence (Sn) index (γ-H2aX) ([1]; compared to P3 and P5) | proliferation (Pf) index ([1]; compared with P3, P5 and P6) | T2 values of cytokine treated cells ([2]; MSCs treated with 10 ng and 20 ng/ml cytokine) | senescent cells in TGF-β1 treated cells versus IL-1 treated cells ([2]; confirmed by decreased T2 values than IL-1 treated cells) |
| --- | --- | --- | --- | --- |
| COc1cccc2c1C(=O)c1c(O)c3c(c(O)c1C2=O)C[C@@](O)(C(=O)CO)C[C@@H]3O[C@H]1C[C@H](N)[C@H](O)[C@H](C)O1 [DOX, doxorubicin] | more senescent cells | lowest |  |  |
| TGFβ1: TGF family member cytokine that induces senescence in MSCs |  |  | decreased with increasing cytokine concentrations | more |
